This note sets out measurements from patent publication US7211577B2, “Water-soluble phenylpyridazine derivative and medicine containing the same” (Kowa Co., Ltd., priority 2003, dated 2007).

For the molecule `CC(C)Cn1nc(-c2ccc(F)c(F)c2)cc(CN2CCNCC2)c1=O.Cl.Cl`, the melting point (in general, the temperature of the solid-liquid transition) lay within 182.5 to 186 °C.
To `CC(C)Cn1nc(-c2ccc(C(F)(F)F)cc2)cc(CN(C)C)c1=O.Cl` belongs 242.2 to 242.3 °C.
With `COc1ccc(-c2cc(CN3CCN(C)CC3)c(=O)n(CC=Cc3ccc(Cl)cc3)n2)cc1F` [Example 209, 2-(4-chlorocinnamyl)-6-(3-fluoro-4-methoxyphenyl)-4-(4-methyl-1-piperazinyl)methyl-2H-pyridazin-3-one] the figure was 123.9 to 125.5 °C.
With `Cc1ccc(-c2cc(CN(C)C)c(=O)n(CC(C)C)n2)cc1F.Cl` [Example 8, 4-dimethylaminomethyl-6-(3-fluoro-4-methylphenyl)-2-isobutyl-2H-pyridazin-3-one hydrochloride] the figure was 246.5 to 248.5 °C; with `COc1ccc(-c2cc(CN(C)C)c(=O)n(Cc3ccc(F)cc3)n2)cc1F` [Example 190, 4-dimethylaminomethyl-2-(4-fluorobenzyl)-6-(3-fluoro-4-methoxyphenyl)-2H-pyridazin-3-one], 127 to 129 °C; with `COc1ccc(-c2cc(CN(C)C)c(=O)n(CCCc3ccc(F)cc3)n2)cc1F` [Example 197, 4-dimethylaminomethyl-6-(3-fluoro-4-methoxyphenyl)-2-[3-(4-fluorophenyl)propyl]-2H-pyridazin-3-one], 97 to 100 °C.
As to `Cc1cc(-c2cc(CN3CCNCC3)c(=O)n(Cc3ccccc3)n2)ccc1F.Cl.Cl`, the melting point was 162.7 to 180.7 °C (dec.).
Take `Cc1ccc(-c2cc(CNC(CO)CO)c(=O)n(CC(C)C)n2)cc1` [Example 52, 4-(1,3-dihydroxypropan-2-yl)aminomethyl-2-isobutyl-6-(4-methylphenyl)-2H-pyridazin-3-one]: the melting point is 134.1 to 135.2 °C.
Molecule `CC(C)Cn1nc(-c2ccc(-c3ccccc3)cc2)cc(CN(C)C)c1=O.Cl` came in with a melting point of 243.9 to 244.1 °C.
The molecule `COc1ccc(-c2cc(CN(C)C)c(=O)n(CC(C)C)n2)cc1Cl.Cl` showed a melting point of 213.6 to 214.3 °C.
Molecule `CC(C)Cn1nc(-c2ccc(F)c(F)c2)cc(CN(C)C)c1=O.Cl` came in with a melting point of 226.5 to 227.7 °C.
With `Cc1cc(-c2cc(CN3CCN(C)CC3)c(=O)n(Cc3ccccc3Cl)n2)ccc1F.Cl.Cl` the figure was 191 to 202 °C (dec.); with `Cc1cc(-c2cc(CN(C)C)c(=O)n(CC=Cc3ccccc3)n2)ccc1F.Cl`, 183.6 to 184.5 °C; with `Cc1cc(-c2cc(CN)c(=O)n(Cc3ccccc3Cl)n2)ccc1F` [Example 237, 4-aminomethyl-2-(2-chlorobenzyl)-6-(4-fluoro-3-methylphenyl)-2H-pyridazin-3-one], 97.6 to 102.2 °C.
With `CC(C)Cn1nc(-c2ccc(S(C)(=O)=O)cc2)cc(CN(C)C)c1=O.Cl` the figure was 221.4 to 223.3 °C.
With `Cc1cc(-c2cc(CN3CCN(C)CC3)c(=O)n(Cc3ccccc3Cl)n2)ccc1F` [Example 224, 2-(2-chlorobenzyl)-6-(4-fluoro-3-methylphenyl)-4-(4-methyl-1-piperazinyl)methyl-2H-pyridazin-3-one] the figure was 149.7 to 150.9 °C.
As for `Cc1cc(-c2cc(CN3CCN(C)CC3)c(=O)n(Cc3ccccc3)n2)ccc1F.Cl.Cl`, the melting point was 240 to 242.5 °C (dec.).
With `COc1ccc(-c2cc(CN)c(=O)n(Cc3ccc(F)cc3)n2)cc1F` [Example 194, 4-aminomethyl-2-(4-fluorobenzyl)-6-(3-fluoro-4-methoxyphenyl)-2H-pyridazin-3-one] the figure was 145 to 149 °C; with `C#CCNCc1cc(-c2ccc(SC)cc2)nn(CC(C)C)c1=O.Cl` [Example 163, 2-isobutyl-6-[4-(methylthio)phenyl]-4-propargylaminomethyl-2H-pyridazin-3-one hydrochloride], 197.5 to 198.4 °C.
With `CC(C)Cn1nc(-c2ccccc2)cc(CN(C)C)c1=O.Cl` the figure was 221.7 to 222.3 °C.
With `CN1CCN(Cc2cc(-c3ccc([S+](C)[O-])cc3)nn(CC3CC3)c2=O)CC1.Cl.Cl` (centres unmarked) the figure was 80 °C (dec.); with `Cc1cc(-c2cc(CCCN)c(=O)n(Cc3ccccc3Cl)n2)ccc1F` [Example 227, 4-(3-aminopropyl)-2-(2-chlorobenzyl)-6-(4-fluoro-3-methylphenyl)-2H-pyridazin-3-one], 80 to 85 °C.
Turning to `CNCc1cc(-c2ccc(OC)c(F)c2)nn(CC2CC2)c1=O` [Example 9, 2-cyclopropylmethyl-6-(3-fluoro-4-methoxyphenyl)-4-methylaminomethyl-2H-pyridazin-3-one], the melting point was in the range of 169.1 to 170.7 °C.
The molecule `COc1ccc(-c2cc(CN(C)C)c(=O)n(CC(C)C)n2)cc1F.Cl` returned a melting point of 212.4 to 212.8 °C.
The molecule `COc1ccc(-c2cc(CN(C)C)c(=O)n(Cc3ccc(Cl)cc3)n2)cc1F` [Example 203, 2-(4-chlorobenzyl)-4-dimethylaminomethyl-6-(3-fluoro-4-methoxyphenyl)-2H-pyridazin-3-one] came in with a melting point of 95.3 to 96.7 °C.
To `CC(C)Cn1nc(-c2ccc([S+](C)[O-])cc2)cc(CN(C)C)c1=O.Cl` (centres unmarked) belongs 204.2 to 206 °C.
For the molecule `COc1ccc(-c2cc(CN3CCN(C)CC3)c(=O)n(Cc3ccc(F)c(F)c3)n2)cc1F` [Example 207, 2-(3,4-difluorobenzyl)-6-(3-fluoro-4-methoxyphenyl)-4-(4-methyl-1-piperazinyl)methyl-2H-pyridazin-3-one], the melting point is 135.4 to 136 °C.
With `COc1ccc(-c2cc(CCCN3CCN(C)CC3)c(=O)n(Cc3ccc(F)cc3)n2)cc1F` [Example 239, 2-(4-fluorobenzyl)-6-(3-fluoro-4-methoxyphenyl)-4-[3-(4-methyl-1-piperazinyl)propyl]-2H-pyridazin-3-one] the figure was 108 to 109 °C; with `Cc1cc(-c2cc(CN3CCNCC3)c(=O)n(CC=Cc3ccccc3)n2)ccc1F.Cl.Cl`, 171.1 to 187.1 °C (dec.); with `Cc1cc(-c2cc(CN(C)C)c(=O)n(Cc3ccccc3)n2)ccc1F.Cl`, 225.3 to 226 °C.
With `CC(C)Cn1nc(-c2ccc(-c3ccccc3)cc2)cc(CN2CCNCC2)c1=O.Cl.Cl` the figure was 226.8 to 228 °C; with `CC(C)Cn1nc(-c2ccc(C(F)(F)F)cc2)cc(CN2CCNCC2)c1=O.Cl.Cl`, 210.8 to 212.5 °C.
In turn, `COc1ccc(-c2cc(CN(C)C)c(=O)n(Cc3ccc(F)c(F)c3)n2)cc1F` [Example 208, 2-(3,4-difluorobenzyl)-4-dimethylaminomethyl-6-(3-fluoro-4-methoxyphenyl)-2H-pyridazin-3-one] had a melting point of 129.9 to 130.4 °C.
With `COc1ccc(-c2cc(CN3CCNCC3)c(=O)n(CC(C)C)n2)cc1F.Cl.Cl` the figure was 163 to 177 °C (dec.); with `COc1ccc(-c2cc(CN3CCN(C)CC3)c(=O)n(CC(C)C)n2)cc1Cl.Cl.Cl`, 235.8 to 236.7 °C; with `COc1ccc(-c2cc(CN3CCN(C)CC3)c(=O)n(CC(C)C)n2)cc1F.Cl.Cl`, 236.9 to 237 °C.
With `CC(C)Cn1nc(-c2ccc(-c3ccccc3)cc2)cc(CN2CCN(C)CC2)c1=O.Cl.Cl` the figure was 262.2 to 263.6 °C; with `COc1ccc(-c2cc(CN3CCNCC3)c(=O)n(CC(C)C)n2)cc1Cl.Cl.Cl`, 203.6 to 204.5 °C.
To `Cc1c(-c2ccccc2)nn(CC(C)C)c(=O)c1N1CCNCC1.Cl.Cl` belongs 154.3 to 159.5 °C; to `Cc1ccc(-c2cc(CN3CCN(C)CC3)c(=O)n(CC(C)C)n2)cc1F.Cl.Cl`, 248.5 to 252 °C (dec.).
With `Cc1cc(-c2cc(CN3CCN(C)CC3)c(=O)n(Cc3ccc(Cl)cc3)n2)ccc1F` [Example 222, 2-(4-chlorobenzyl)-6-(4-fluoro-3-methylphenyl)-4-(4-methyl-1-piperazinyl)methyl-2H-pyridazin-3-one], the melting point was in the range of 133.3 to 133.8 °C.
`CSc1ccc(-c2cc(CN(C)C)c(=O)n(CC(C)C)n2)cc1.Cl` [Example 161, 4-dimethylaminomethyl-2-isobutyl-6-[4-(methylthio)phenyl]-2H-pyridazin-3-one hydrochloride] had a melting point of 216.8 to 218.4 °C.
With `Cc1ccc(-c2cc(CN)c(=O)n(CC(C)C)n2)cc1` [Example 50, 4-aminomethyl-2-isobutyl-6-(4-methylphenyl)-2H-pyridazin-3-one] the figure was 74.9 to 77.9 °C; with `CSc1ccc(-c2cc(CN3CCN(C)CC3)c(=O)n(CC(C)C)n2)cc1.Cl.Cl`, 242.6 to 243.7 °C.
To `Cc1cc(-c2cc(CN3CCN(C)CC3)c(=O)n(CC=Cc3ccccc3)n2)ccc1F.Cl.Cl` belongs 236.1 to 237.1 °C; to `COc1ccc(-c2cc(CN)c(=O)n(Cc3ccc(Cl)cc3)n2)cc1F` [Example 205, 4-aminomethyl-2-(4-chlorobenzyl)-6-(3-fluoro-4-methoxyphenyl)-2H-pyridazin-3-one], 128.5 to 131.4 °C.
To `COc1ccc(-c2cc(CN3CCN(C)CC3)c(=O)n(Cc3ccc(F)cc3)n2)cc1F` [Example 189, 2-(4-fluorobenzyl)-6-(3-fluoro-4-methoxyphenyl)-4-(4-methyl-1-piperazinyl)methyl-2H-pyridazin-3-one] belongs 112 to 113 °C; to `CN1CCN(Cc2cc(-c3ccc(S(C)(=O)=O)cc3)nn(CC3CC3)c2=O)CC1.Cl.Cl`, 209 to 211.4 °C; to `CC(C)Cn1nc(-c2ccc(S(C)(=O)=O)cc2)cc(CN2CCN(C)CC2)c1=O.Cl.Cl`, 224.5 to 228 °C.
Regarding `CC(C)Cn1nc(-c2ccc(F)c(F)c2)cc(CN2CCN(C)CC2)c1=O.Cl.Cl`, the melting point was in the range of 242.5 to 243.4 °C.
To `COc1ccc(-c2cc(CN)c(=O)n(CCCc3ccc(F)cc3)n2)cc1F` [Example 200, 4-aminomethyl-6-(3-fluoro-4-methoxyphenyl)-2-[3-(4-fluorophenyl)propyl]-2H-pyridazin-3-one] belongs 82 to 84 °C; to `Cc1c(-c2ccc(C(F)(F)F)cc2)nn(CC(C)C)c(=O)c1N1CCN(C)CC1.Cl.Cl`, 249.9 to 252.8 °C.
To `Cc1ccc(-c2cc(CN3CCNCC3)c(=O)n(CC(C)C)n2)cc1F.Cl.Cl` belongs 186.2 to 195 °C (dec.).
